In brackets after ≈: the same amount, converted by molar mass.
Tests used:
Assay in all cases: MIC microbroth dilution
Type in all cases: cell-based
[1] = system: E. cloacae GC 1475 (P99); conditions: Enterobacter cloacae, β-lactamase class C, MHBII, 35° C. 18 hr, read-out: Minimal Inhibitory Concentration
Protocol: (§1) The in vitro activities of the antibiotics were determined by the microbroth dilution method as recommended by the National Committee for Clinical Laboratory Standards (NCCLS). (NCCLS. 2000. Methods for Dilution Antimicrobial Susceptibility Tests for Bacteria That Grow Aerobically; Approved Standards: M7-A5, vol. 19. National Committee for Clinical Laboratory Standards, Villanova, Pa.). Mueller-Hinton II broth (MHBII) (BBL Cockeysville, Md.), was used for the testing procedure. […]. The plates were incubated for 18-22 hours at 35 C. in ambient air.

[2] = system: E. coli GC 2894 (AmpC); conditions: Escherichia coli, β-lactamase class C, MHBII, 35° C. 18 hr, read-out: Minimal Inhibitory Concentration
Protocol: as §1

[3] = system: K. pneumoniae GC 7820 Act 1; conditions: Klebsiella pneumoniae, GC7820ACT1, β-lactamase class C, MHBII, 35° C. 18 hr, read-out: Minimal Inhibitory Concentration
Protocol: as §1

[4] = system: K. pneumoniae GC 7645 TEM-30 TEM-1 KPC-2 SHV-12; conditions: Klebsiella pneumoniae, 18 h, read-out: Minimal Inhibitory Concentration
Protocol: as §1

[5] = system: S. maltophilia GC 1712(L1); conditions: Stenotrophomonas maltophilia, β-lactamase class B, MHBII, 35° C. 18 hr, read-out: Minimal Inhibitory Concentration
Protocol: as §1

[6] = system: S. typhimurium GC 4197 CTX-M-5; conditions: Salmonella enterica, β-lactamase class A (ESBL), MHBII, 35° C. 18 hr, read-out: Minimal Inhibitory Concentration
Protocol: as §1

[7] = system: K. pn GC 2391 (pl 5.4; 5.6; 7.6; 8.7 B-lactamases); conditions: Klebsiella pneumoniae, β-lactamase class A, A (ESBL), C (presumed), MHBII, 35° C. 18 hr, read-out: Minimal Inhibitory Concentration
Protocol: as §1

[8] = system: A. baumannii GC 7685 TEM-1; conditions: Acinetobacter baumannii, GC7685TEM1, 18 h, read-out: Minimal Inhibitory Concentration
Protocol: as §1

[9] = system: E. coli GC 2804 (imp); conditions: Escherichia coli, 18 h, read-out: Minimal Inhibitory Concentration
Protocol: as §1

[10] = system: A. baumannii GC 7684 AmpC, AmpC; conditions: Acinetobacter baumannii, β-lactamase class C, MHBII, 35° C. 18 hr, read-out: Minimal Inhibitory Concentration
Protocol: as §1

[11] = system: E. coli GC 5901 (TEM-1 and SHV-8); conditions: Escherichia coli, β-lactamase class A, A (ESBL), MHBII, 35° C. 18 hr, read-out: Minimal Inhibitory Concentration
Protocol: as §1

[12] = system: S. marcescens GC 4145 Inducible AmpC; conditions: Serratia marcescens, β-lactamase class C, MHBII, 35° C. 18 hr, read-out: Minimal Inhibitory Concentration
Protocol: as §1

[13] = system: E. coli GC 1684 (TEM-10); conditions: Escherichia coli, β-lactamase class A (ESBL), MHBII, 35° C. 18 hr, read-out: Minimal Inhibitory Concentration
Protocol: as §1

[14] = system: E. cloacae PT 1494 Inducible AmpC; conditions: Enterobacter cloacae, β-lactamase class C, MHBII, 35° C. 18 hr, read-out: Minimal Inhibitory Concentration
Protocol: as §1

[15] = system: K. pneumoniae GC 7824 Fox 5; conditions: Klebsiella pneumoniae, GC7824FOX5, β-lactamase class C, MHBII, 35° C. 18 hr, read-out: Minimal Inhibitory Concentration
Protocol: as §1

[16] = system: K. pn GC 1963 (TEM-10 + SHV-1 + SHV-ESBL); conditions: Klebsiella pneumoniae, β-lactamase class A, MHBII, 35° C. 18 hr, read-out: Minimal Inhibitory Concentration
Protocol: as §1

[17] = system: E. coli GC 6197 (TEM-1 + SHV-7 + CMY-2); conditions: Escherichia coli, β-lactamase class A, A (ESBL), C, MHBII, 35° C. 18 hr, read-out: Minimal Inhibitory Concentration
Protocol: as §1

[18] = system: P. aeruginosa ATCC 27853 AmpC-inducable; conditions: Pseudomonas aeruginosa, ATCC27853, β-lactamase class C, MHBII, 35° C. 18 hr, read-out: Minimal Inhibitory Concentration
Protocol: as §1

[19] = system: C. freundii GC 4164 Inducible AmpC; conditions: Citrobacter freundii, β-lactamase class C, MHBII, 35° C. 18 hr, read-out: Minimal Inhibitory Concentration
Protocol: as §1

[20] = system: E. coli GC 2844 (none); conditions: Escherichia coli, β-lactamase class none, MHBII, 35° C. 18 hr, read-out: Minimal Inhibitory Concentration
Protocol: as §1

[21] = system: K. pn GC 1832 (SHV-4); conditions: Klebsiella pneumoniae, β-lactamase class A (ESBL), MHBII, 35° C. 18 hr, read-out: Minimal Inhibitory Concentration
Protocol: as §1

[22] = system: P. aeruginosa GC 4161 Stably derepressed AmpC; conditions: Pseudomonas aeruginosa, 18 h, read-out: Minimal Inhibitory Concentration
Protocol: as §1

[23] = system: E. aerogenes GC 7036 TEM-24, Amp C inducable; conditions: Klebsiella aerogenes, β-lactamase class A (ESBL), MHBII, 35° C. 18 hr, read-out: Minimal Inhibitory Concentration
Protocol: as §1

Q: Which MIC [1] does the source give for `CO/N=C(\C(=O)N[C@@H]1C(=O)N2C(C(=O)[O-])=C(C[N+]3(C)CCCC3)CS[C@H]12)c1csc(N)n1` [Cefepime] here?
A: 1 µg/mL (≈ 2.08 µM)

Q: And the MIC [2]?
A: 2 µg/mL (≈ 4.16 µM)

Q: What about the MIC [3] of the same compound?
A: 0.5 µg/mL (≈ 1.04 µM)

Q: What about the MIC [4] of the same compound?
A: > 16 µg/mL

Q: And the MIC [5]?
A: > 16 µg/mL

Q: And the MIC [6]?
A: > 16 µg/mL

Q: And the MIC [7]?
A: 8 µg/mL (≈ 16.6 µM)

Q: What about the MIC [8] of the same compound?
A: > 16 µg/mL

Q: What about the MIC [9] of the same compound?
A: 0.03 µg/mL (≈ 0.0624 µM)

Q: What about the MIC [10] of the same compound?
A: 16 µg/mL (≈ 33.3 µM)

Q: And the MIC [11]?
A: > 16 µg/mL

Q: And the MIC [12]?
A: 1 µg/mL (≈ 2.08 µM)

Q: What about the MIC [13] of the same compound?
A: > 16 µg/mL

Q: What about the MIC [14] of the same compound?
A: 0.25 µg/mL (≈ 0.52 µM)

Q: What about the MIC [15] of the same compound?
A: 2 µg/mL (≈ 4.16 µM)

Q: And the MIC [16]?
A: > 16 µg/mL

Q: And the MIC [17]?
A: > 16 µg/mL

Q: What about the MIC [18] of the same compound?
A: 2 µg/mL (≈ 4.16 µM)

Q: What about the MIC [19] of the same compound?
A: 2 µg/mL (≈ 4.16 µM)

Q: And the MIC [20]?
A: 0.06 µg/mL (≈ 0.125 µM)

Q: And the MIC [21]?
A: 2 µg/mL (≈ 4.16 µM)

Q: And the MIC [22]?
A: > 16 µg/mL

Q: What about the MIC [23] of the same compound?
A: 2 µg/mL (≈ 4.16 µM)

Source: patent US20070027130A1, “Tricyclic 6-alkylidene-penem beta-lactamase inhibitors and beta-lactam antibiotic combination: a broad spectrum antibiotic” (priority 2005, published 2007)
